Data published in patent US8076487B2, “Pyridone derivative and herbicide” (Kumiai Chemical Industry Co., Ltd., priority 2006, dated 2011).

What was measured:
Assay type in all cases: in vivo
[1] = tested on: slender amaranth (Amaranthus viridis L.); test: Test Example 2: herbicidal effect by soil application to upland field; conditions: soil surface spray, upland field soil, 1,000 g active ingredient per hectare, 21st day after application
Summary of the method: (§1)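 After sowing and covering, the soil received an even aqueous spray of wettable powder at a rate of 1,000 g active ingredient/ha (1,000 L/ha). Ratings of herbicidal effect followed a standard scale 21 days post-treatment, with plants held in a greenhouse.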

[2] = tested on: green foxtail (Setaria viridis (L.) P. Beauv.); test: as above; conditions: soil surface spray, upland field soil, 1,000 g active ingredient per hectare, 21st day after application
Summary of the method: as §1

[3] = tested on: velvetleaf (Abutilon theophrasti medicus); test: as above; conditions: soil surface spray, upland field soil, 1,000 g active ingredient per hectare, 21st day after application
Summary of the method: as §1

[4] = tested on: barnyardgrass (Echinochloa crus-galli (L.) P. Beauv. var. crus-galli); test: as above; conditions: soil surface spray, upland field soil, 1,000 g active ingredient per hectare, 21st day after application
Summary of the method: as §1

[5] = tested on: Japanese bulrush (Scirpus juncoides Roxb.); test: Test Example 1: herbicidal effect by soil application to paddy field; conditions: paddy field soil application; active ingredient 1,000 g per 1 hectare; wettable powder added dropwise to water surface the day after sowing; examined on the 21st day after application
Summary of the method: (§2)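 Under greenhouse conditions, seeds sown on puddled paddy soil in 100 cm2 pots under 3 cm of standing water received the test compound; injury was assessed with a standard scoring scheme three weeks (day 21) after treatment.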

[6] = tested on: early watergrass (Echinochloa oryzicola Vasing); test: as above; conditions: paddy field soil application; active ingredient 1,000 g per 1 hectare; wettable powder added dropwise to water surface the day after sowing; examined on the 21st day after application
Summary of the method: as §2

[7] = tested on: heartshape false pickerelweed (Monochoria vaginalis (Burm.f.) C.Presl); test: as above; conditions: paddy field soil application; active ingredient 1,000 g per 1 hectare; wettable powder added dropwise to water surface the day after sowing; examined on the 21st day after application
Summary of the method: as §2

[8] = tested on: slender amaranth (Amaranthus viridis L.); test: Test Example 3: herbicidal effect by application to upland field (foliage treatment); conditions: 14th day after application; for herbicidal effect (index), Slender Amaranth: foliage treatment, plants grown two weeks, 1,000 g active ingredient per hectare; for herbicidal effect, Slender Amaranth: foliage treatment, 1,000 g active ingredient per 1 hectare, greenhouse
Summary of the method: (§3)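 Dose 1,000 g active ingredient/ha, sprayed as diluted wettable powder over entire plants two weeks after sowing in field soil. Kept in greenhouse; herbicidal effect graded on a standard scale on day 14.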

[9] = tested on: green foxtail (Setaria viridis (L.) P. Beauv.); test: as above; conditions: 14th day after application; for herbicidal effect (index), Green Foxtail: foliage treatment, plants grown two weeks, 1,000 g active ingredient per hectare; for herbicidal effect, Green Foxtail: foliage treatment, 1,000 g active ingredient per 1 hectare, greenhouse
Summary of the method: as §3

[10] = tested on: velvetleaf (Abutilon theophrasti medicus); test: as above; conditions: 14th day after application; for herbicidal effect (index), Velvetleaf: foliage treatment, plants grown two weeks, 1,000 g active ingredient per hectare; for herbicidal effect, Velvetleaf: foliage treatment, 1,000 g active ingredient per 1 hectare, greenhouse
Summary of the method: as §3

[11] = tested on: barnyardgrass (Echinochloa crus-galli (L.) P. Beauv. var. crus-galli); test: as above; conditions: 14th day after application; for herbicidal effect (index), Barnyardgrass: foliage treatment, plants grown two weeks, 1,000 g active ingredient per hectare; for herbicidal effect, Barnyardgrass: foliage treatment, 1,000 g active ingredient per 1 hectare, greenhouse
Summary of the method: as §3

With CC(C)n1c(C(F)(F)F)ccc(C(=O)C2=C(O)CCCC2=O)c1=O [I-4] the “herbicidal effect (index), Slender Amaranth” value [1] was 5 (90% or more of herbicidal effect and crop phytotoxicity), the “herbicidal effect (index), Green Foxtail” value [2] was 4 (70 to less than 90% of herbicidal effect and crop phytotoxicity) and the “herbicidal effect (index), Velvetleaf” value [3] was 5 (90% or more of herbicidal effect and crop phytotoxicity). The “herbicidal effect (index), Barnyardgrass” value [4] was 5 (90% or more of herbicidal effect and crop phytotoxicity), the “herbicidal effect, Scirpus juncoides Roxb.” value [5] was 5 (90% or more of herbicidal effect and crop phytotoxicity) and the “herbicidal effect, Echinochloa oryzicola Vasing” value [6] was 5 (90% or more of herbicidal effect and crop phytotoxicity). For the same compound, the “herbicidal effect, Monochoria vaginalis (Burm. f.) C. Presl” value (“herbicidal effect, Monochoria vaginalis” below) [7] was 5 (90% or more of herbicidal effect and crop phytotoxicity), the “herbicidal effect (index), Slender Amaranth” value [8] was 5 (90% or more of herbicidal effect and crop phytotoxicity) and the “herbicidal effect (index), Green Foxtail” value [9] was 3 (50 to less than 70% of herbicidal effect and crop phytotoxicity). For the same compound, the “herbicidal effect (index), Velvetleaf” value [10] was 5 (90% or more of herbicidal effect and crop phytotoxicity) and the “herbicidal effect (index), Barnyardgrass” value [11] was 5 (90% or more of herbicidal effect and crop phytotoxicity).

For CS(=O)(=O)c1ccc(-n2c(C(F)(F)F)ccc(C(=O)C3=C(O)CCCC3=O)c2=O)cc1 [I-83], the “herbicidal effect (index), Slender Amaranth” value [1] was 5 (90% or more of herbicidal effect and crop phytotoxicity), the “herbicidal effect (index), Green Foxtail” value [2] was 5 (90% or more of herbicidal effect and crop phytotoxicity) and the “herbicidal effect (index), Velvetleaf” value [3] was 5 (90% or more of herbicidal effect and crop phytotoxicity). For the same compound, the “herbicidal effect (index), Barnyardgrass” value [4] was 5 (90% or more of herbicidal effect and crop phytotoxicity), the “herbicidal effect, Scirpus juncoides Roxb.” value [5] was 5 (90% or more of herbicidal effect and crop phytotoxicity) and the “herbicidal effect, Echinochloa oryzicola Vasing” value [6] was 5 (90% or more of herbicidal effect and crop phytotoxicity). The “herbicidal effect, Monochoria vaginalis” value [7] was 5 (90% or more of herbicidal effect and crop phytotoxicity), the “herbicidal effect (index), Slender Amaranth” value [8] was 5 (90% or more of herbicidal effect and crop phytotoxicity) and the “herbicidal effect (index), Green Foxtail” value [9] was 5 (90% or more of herbicidal effect and crop phytotoxicity). For the same compound, the “herbicidal effect (index), Velvetleaf” value [10] was 5 (90% or more of herbicidal effect and crop phytotoxicity) and the “herbicidal effect (index), Barnyardgrass” value [11] was 5 (90% or more of herbicidal effect and crop phytotoxicity).

For O=C1CCCC(O)=C1C(=O)c1ccc(C(F)(F)F)n(-c2ccc(C(F)(F)F)cc2)c1=O [I-86], the “herbicidal effect (index), Slender Amaranth” value [1] was 5 (90% or more of herbicidal effect and crop phytotoxicity), the “herbicidal effect (index), Green Foxtail” value [2] was 5 (90% or more of herbicidal effect and crop phytotoxicity) and the “herbicidal effect (index), Velvetleaf” value [3] was 5 (90% or more of herbicidal effect and crop phytotoxicity). The “herbicidal effect (index), Barnyardgrass” value [4] was 5 (90% or more of herbicidal effect and crop phytotoxicity), the “herbicidal effect, Scirpus juncoides Roxb.” value [5] was 5 (90% or more of herbicidal effect and crop phytotoxicity) and the “herbicidal effect, Echinochloa oryzicola Vasing” value [6] was 5 (90% or more of herbicidal effect and crop phytotoxicity). The “herbicidal effect, Monochoria vaginalis” value [7] was 5 (90% or more of herbicidal effect and crop phytotoxicity), the “herbicidal effect (index), Slender Amaranth” value [8] was 5 (90% or more of herbicidal effect and crop phytotoxicity) and the “herbicidal effect (index), Green Foxtail” value [9] was 5 (90% or more of herbicidal effect and crop phytotoxicity). The “herbicidal effect (index), Velvetleaf” value [10] was 5 (90% or more of herbicidal effect and crop phytotoxicity) and the “herbicidal effect (index), Barnyardgrass” value [11] was 5 (90% or more of herbicidal effect and crop phytotoxicity).

Cc1cccc(-n2cccc(C(=O)C3=C(O)CCCC3=O)c2=O)c1 [I-238] was tested, and the “herbicidal effect (index), Slender Amaranth” value [1] was 5 (90% or more of herbicidal effect and crop phytotoxicity), the “herbicidal effect (index), Green Foxtail” value [2] was 4 (70 to less than 90% of herbicidal effect and crop phytotoxicity) and the “herbicidal effect (index), Velvetleaf” value [3] was 5 (90% or more of herbicidal effect and crop phytotoxicity). The “herbicidal effect (index), Barnyardgrass” value [4] was 5 (90% or more of herbicidal effect and crop phytotoxicity), the “herbicidal effect, Scirpus juncoides Roxb.” value [5] was 5 (90% or more of herbicidal effect and crop phytotoxicity) and the “herbicidal effect, Echinochloa oryzicola Vasing” value [6] was 5 (90% or more of herbicidal effect and crop phytotoxicity). For the same compound, the “herbicidal effect, Monochoria vaginalis” value [7] was 5 (90% or more of herbicidal effect and crop phytotoxicity), the “herbicidal effect, Slender Amaranth” value [8] was 5 (90% or more of herbicidal effect and crop phytotoxicity) and the “herbicidal effect, Green Foxtail” value [9] was 4 (70 to less than 90% of herbicidal effect and crop phytotoxicity). The “herbicidal effect, Velvetleaf” value [10] was 5 (90% or more of herbicidal effect and crop phytotoxicity) and the “herbicidal effect, Barnyardgrass” value [11] was 5 (90% or more of herbicidal effect and crop phytotoxicity).

In the case of Cn1ncc(C(=O)c2ccc(C(F)(F)F)n(C3CC3)c2=O)c1O [IV-18], the “herbicidal effect (index), Slender Amaranth” value [1] was 5 (90% or more of herbicidal effect and crop phytotoxicity), the “herbicidal effect (index), Green Foxtail” value [2] was 5 (90% or more of herbicidal effect and crop phytotoxicity) and the “herbicidal effect (index), Velvetleaf” value [3] was 5 (90% or more of herbicidal effect and crop phytotoxicity). The “herbicidal effect (index), Barnyardgrass” value [4] was 5 (90% or more of herbicidal effect and crop phytotoxicity), the “herbicidal effect, Scirpus juncoides Roxb.” value [5] was 5 (90% or more of herbicidal effect and crop phytotoxicity) and the “herbicidal effect, Echinochloa oryzicola Vasing” value [6] was 5 (90% or more of herbicidal effect and crop phytotoxicity). For the same compound, the “herbicidal effect, Monochoria vaginalis” value [7] was 5 (90% or more of herbicidal effect and crop phytotoxicity), the “herbicidal effect, Slender Amaranth” value [8] was 5 (90% or more of herbicidal effect and crop phytotoxicity) and the “herbicidal effect, Green Foxtail” value [9] was 5 (90% or more of herbicidal effect and crop phytotoxicity). For the same compound, the “herbicidal effect, Velvetleaf” value [10] was 5 (90% or more of herbicidal effect and crop phytotoxicity) and the “herbicidal effect, Barnyardgrass” value [11] was 5 (90% or more of herbicidal effect and crop phytotoxicity).

In the case of O=C1CCCC(O)=C1C(=O)c1ccc(C(F)(F)F)n(-c2cccc([N+](=O)[O-])c2)c1=O [I-87], the “herbicidal effect (index), Slender Amaranth” value [1] was 5 (90% or more of herbicidal effect and crop phytotoxicity), the “herbicidal effect (index), Green Foxtail” value [2] was 5 (90% or more of herbicidal effect and crop phytotoxicity) and the “herbicidal effect (index), Velvetleaf” value [3] was 5 (90% or more of herbicidal effect and crop phytotoxicity). For the same compound, the “herbicidal effect (index), Barnyardgrass” value [4] was 5 (90% or more of herbicidal effect and crop phytotoxicity), the “herbicidal effect, Scirpus juncoides Roxb.” value [5] was 5 (90% or more of herbicidal effect and crop phytotoxicity) and the “herbicidal effect, Echinochloa oryzicola Vasing” value [6] was 5 (90% or more of herbicidal effect and crop phytotoxicity). The “herbicidal effect, Monochoria vaginalis” value [7] was 5 (90% or more of herbicidal effect and crop phytotoxicity), the “herbicidal effect (index), Slender Amaranth” value [8] was 5 (90% or more of herbicidal effect and crop phytotoxicity) and the “herbicidal effect (index), Green Foxtail” value [9] was 5 (90% or more of herbicidal effect and crop phytotoxicity). For the same compound, the “herbicidal effect (index), Velvetleaf” value [10] was 5 (90% or more of herbicidal effect and crop phytotoxicity) and the “herbicidal effect (index), Barnyardgrass” value [11] was 5 (90% or more of herbicidal effect and crop phytotoxicity).

In the case of CCCn1c(C(F)(F)F)ccc(C(=O)c2cnn(CC)c2OS(=O)(=O)CCC)c1=O [IV-202], the “herbicidal effect (index), Slender Amaranth” value [1] was 5 (90% or more of herbicidal effect and crop phytotoxicity), the “herbicidal effect (index), Green Foxtail” value [2] was 5 (90% or more of herbicidal effect and crop phytotoxicity) and the “herbicidal effect (index), Velvetleaf” value [3] was 5 (90% or more of herbicidal effect and crop phytotoxicity). The “herbicidal effect (index), Barnyardgrass” value [4] was 5 (90% or more of herbicidal effect and crop phytotoxicity), the “herbicidal effect, Scirpus juncoides Roxb.” value [5] was 5 (90% or more of herbicidal effect and crop phytotoxicity) and the “herbicidal effect, Echinochloa oryzicola Vasing” value [6] was 5 (90% or more of herbicidal effect and crop phytotoxicity). For the same compound, the “herbicidal effect, Monochoria vaginalis” value [7] was 5 (90% or more of herbicidal effect and crop phytotoxicity), the “herbicidal effect, Slender Amaranth” value [8] was 5 (90% or more of herbicidal effect and crop phytotoxicity) and the “herbicidal effect, Green Foxtail” value [9] was 5 (90% or more of herbicidal effect and crop phytotoxicity). For the same compound, the “herbicidal effect, Velvetleaf” value [10] was 5 (90% or more of herbicidal effect and crop phytotoxicity) and the “herbicidal effect, Barnyardgrass” value [11] was 5 (90% or more of herbicidal effect and crop phytotoxicity).

In the case of COCC(C)n1c(C(F)(F)F)ccc(C(=O)c2cnn(C)c2O)c1=O (stereo not shown) [IV-36], the “herbicidal effect (index), Slender Amaranth” value [1] was 5 (90% or more of herbicidal effect and crop phytotoxicity), the “herbicidal effect (index), Green Foxtail” value [2] was 3 (50 to less than 70% of herbicidal effect and crop phytotoxicity) and the “herbicidal effect (index), Velvetleaf” value [3] was 5 (90% or more of herbicidal effect and crop phytotoxicity). The “herbicidal effect (index), Barnyardgrass” value [4] was 5 (90% or more of herbicidal effect and crop phytotoxicity), the “herbicidal effect, Scirpus juncoides Roxb.” value [5] was 5 (90% or more of herbicidal effect and crop phytotoxicity) and the “herbicidal effect, Echinochloa oryzicola Vasing” value [6] was 5 (90% or more of herbicidal effect and crop phytotoxicity). For the same compound, the “herbicidal effect, Monochoria vaginalis” value [7] was 5 (90% or more of herbicidal effect and crop phytotoxicity), the “herbicidal effect, Slender Amaranth” value [8] was 5 (90% or more of herbicidal effect and crop phytotoxicity) and the “herbicidal effect, Green Foxtail” value [9] was 5 (90% or more of herbicidal effect and crop phytotoxicity). The “herbicidal effect, Velvetleaf” value [10] was 5 (90% or more of herbicidal effect and crop phytotoxicity) and the “herbicidal effect, Barnyardgrass” value [11] was 5 (90% or more of herbicidal effect and crop phytotoxicity).
